From patent US6696427B1, “Use of bisphosphonates for the prevention and treatment of infectious processes” (Jomaa Pharmaka GmbH, priority 1998, dated 2004) come the findings set out here.

The experiment deals with γδ-T cells. The experiment in a line: activatability of γδ-T cells in mononuclear cells isolated from blood of treated test subjects. The experiment is classed as in vivo, human. Here is the method:
[…] After the third infusion, a blood sample was taken from the subjects. The mononuclear cells were isolated from the blood. The activatability of the γδ-T cells was then tested. A full description is published in Jomaa et al. FEMS Immunol. Med. Microbiol. September 1999; 25(4); 371-8.
In contrast, cells from control subjects could be activated.

On to `CCCCCN(C)CCC(O)(P(=O)(O)O)P(=O)(O)O` [ibandronic acid, 3-methylpentylamino-1-hydroxypropylidene-1,1-bisphosphonic acid], for which, under “test subjects, 1 mg per treatment, protocol from Example 1”, the “γδ-T cell activation by antigens obtained from microorganisms” value is “no γδ-T cell activation”.

As to `NCCC(O)(P(=O)(O)O)P(=O)(O)O` [pamidronic acid, 3-amino-1-hydroxypropylidene-1,1-bisphosphonic acid], the “γδ-T cell activation by antigens obtained from microorganisms” value (healthy test subjects, infusion of 90 mg at fortnightly intervals, blood sample after the third infusion, isolated mononuclear cells) was “no γδ-T cell activation”.
